Source: patent US20230132535A1, “PROLIFERATION SUPPRESSING AGENT FOR CANINE CANCER CELLS” (Japan Animal Referral Medical Center, priority 2020, published 2023)

How the values were obtained:
[1] = system: BRAFV595E transitional epithelial cancer cells (TCCV-Ka strain); test: Anti-tumor activity by a xenograft test system (TCCV-Ka strain in SCID mice); type: in vivo, SCID mouse; settings: 10 mg/kg intraperitoneally, 5 times/week, compared to control group, from day 5 of administration
Method: In order to observe the anti-tumor activity in the xenograft test system, it has been reported that the tumor growth depends on the number of cells inoculated, cell strains, and animal species. Then, five strains of V595E transitional epithelial cancer established cell lines, 1×10^6 and 1×10^7 cells/200 μl, were inoculated subcutaneously on the ventral side of SCID mouse (CB17/Icr-scid/scid. Jcl, CLEA Japan), and the formation of tumors was observed.
Using the TCCV-Ka strain as a graft cell, 1×10^7 cells were inoculated on the right ventral side of 5 SCID mice in each of the administration group and the control group. Two weeks later, a tumor of approximately 5×5 mm was formed. In the control group, 10% DMSO was administered intraperitoneally, and in the administration group, 200 μl of CEP32496 suspension solution (10 mg/kg) in 10% DMSO was administered intraperitoneally. The administration was 5 times/week.

[2] = system: V595E transitional epithelial cancer cells (TCCV-So strain); test: Cell proliferation suppressing test (WST 1), TCCV-So strain; type: cell-based, canine; settings: Canis lupus familiaris
Method: (§1) 1,000 to 3,000 established cell lines (TCCV-Ka, TCCV-So, TCCV-Ec, TCCV-Ni, and TCCV-Ic) per well were spread on 96 well culture plates and cultured for 24 hours, then 8 BRAF inhibiting agents (GDC0879, AZ628, PLX4720, Encorafenib, Vemurafenib, Dabrafenib, RAF265, and CEP32496) dissolved in 0.1% DMSO were added with GDC0879, AZ628, Vemurafenib, Dabrafenib, and RAF265 at 0, 50, 100, 500, 1000, 5000, and 10000 nM, PLX4720 at 0, 1, 10, 100, 1000, 5000, and 10000 nM, Encorafenib at 0, 32, 63, 125, 250, 500, and 1000 nM, CEP32496 at 0, 3, 10, 30, 100, 300, and 1000 nM, the number of surviving cells after 24, 48, and 72 hours was measured using WST 1, and the cell proliferation suppressing activity was calculated.
(§2) One example of the reaction curve of the BRAF inhibiting agent against canine V595E transitional epithelial cancer cells (TCC V-So strain) was shown in FIG. 1.

[3] = system: canine V595E transitional epithelial cancer cells (TCCV-Ka, TCCV-So, TCCV-Ec, TCCV-Ni, TCCV-Ic); test: Cell proliferation suppressing test (WST 1), five V595E transitional epithelial cancer established cell lines; type: cell-based
Excerpt: Using five canine V595E transitional epithelial cancer established cell lines, taken from clinical cases by the inventors so far and cloned in approximately 80 passages, the cell proliferation suppressing activity of eight human BRAF inhibiting agents (GDC0879, AZ628, PLX4720, Encorafenib, Vemurafenib, Dabrafenib, RAF265, and CEP32496), which are available and have high cell proliferation suppressing activity, was investigated. In addition, in the xenograft test system, suppression of tumor growth (anti-tumor activity) was measured and the anti-tumor activity was investigated.
as §1, with “calculated. […]” for “calculated.”

TCCV-Ec strain = test: Cell proliferation suppressing test (WST 1), TCCV-Ec strain; type: cell-based, canine; settings: Canis lupus familiaris; TCCV-Ec strain only
Method: as §1, §2

TCCV-Ni strain = test: Cell proliferation suppressing test (WST 1), TCCV-Ni strain; type: cell-based, canine; settings: Canis lupus familiaris

`COc1cc2ncnc(Oc3cccc(NC(=O)Nc4cc(C(C)(C)C(F)(F)F)on4)c3)c2cc1OC` [CEP32496, 1-(3-((6,7-dimethoxyquinazolin-4-yl)oxy)phenyl)-3-(5-(1,1,1-trifluoro-2-methylpropan-2-yl)isoxazol-3-yl)urea] was tested, and the “suppression of tumor formation (anti-tumor activity)” value [1] was “significant suppression of tumor formation”, the IC50 [2] was 15 nM and the “proliferation suppressing activity compared to the other 7 BRAF inhibiting agents” value ([3]; 5 strains, FIG. 2) was “significantly higher activity”. The IC50 ([3]; Canis lupus familiaris, all the cell strains used (5 strains)) was 9 to 200 nM.

For `CCCS(=O)(=O)Nc1ccc(F)c(C(=O)c2c[nH]c3ncc(Cl)cc23)c1F` [PLX4720], the IC50 (TCCV-Ec strain) was 200 nM.

Work on `COC(=O)N[C@@H](C)CNc1nccc(-c2cn(C(C)C)nc2-c2cc(Cl)cc(NS(C)(=O)=O)c2F)n1` [Encorafenib] yielded an IC50 (TCCV-Ec strain) of 180 nM.

Compound `Cn1c(Nc2ccc(C(F)(F)F)cc2)nc2cc(Oc3ccnc(-c4ncc(C(F)(F)F)[nH]4)c3)ccc21` [RAF265] has an IC50 (TCCV-Ec strain) of 150 nM.

Work on `CCCS(=O)(=O)Nc1ccc(F)c(C(=O)c2c[nH]c3ncc(-c4ccc(Cl)cc4)cc23)c1F` [Vemurafenib] yielded an IC50 (TCCV-Ni strain) of 1500 nM.
